{"source": "patent US4376076A", "about": "“Bis-esters of 1,1-alkanediols with 6-beta-hydroxymethylpenicillanic acid 1,1-dioxide” (priority 1982, dated 1983)", "key": {"[1]": {"test_system": "Enterobacter cloacae 67B009", "test": "MIC on BHI agar, alone and 1:1 with ampicillin", "type": "cell-based", "conditions": "for MIC: inhibitor alone, 18 hrs. at 37° C.", "protocol": "(§1) The procedure which is followed is the one recommended by the International Collaborative Study on Antibiotic Sensitivity Testing [Ericcson and Sherris, Acta. Pathologica et Microbiologia Scandinav, Supp. 217, Sections A and B: 64-68 (1971)], and employs brain heart infusion (BHI) agar and the inocula replicating device. Overnight growth tubes are diluted 100 fold for use as the standard inoculum (20,000-10,000 cells in approximately 0.002 ml are placed on the agar surface; 20 ml of BHI agar/dish). Twelve 2 fold dilutions of the test compound are employed, with initial concentration of the test drug being 200 mcg/ml. Single colonies are disregarded when reading tubes after 18 hrs. at 37° C. […] These MIC's are then compared with the MIC values obtained with a combination of the given antibiotic and the compound of the formula (6). […] The MIC values of combinations are measured using the method described by Barry and Sabath in \"Manual of Clinical Microbiology\", edited by Lenette, Spaulding and Truant, 2nd Edition, 1974, American Society for Microbiology.\n(§2) For purposes of comparison data on the earlier beta-lactamase inhibitor, penicillanic acid 1,1-dioxide, are included."}, "[2]": {"test_system": "Serratia marcescens 63A095", "test": "MIC on BHI agar, alone and 1:1 with ampicillin", "type": "cell-based", "conditions": "inhibitor alone; 18 hrs. at 37° C.", "protocol": "as §1, §2"}, "[3]": {"test_system": "Proteus morgani 57G001", "test": "MIC on BHI agar, alone and 1:1 with ampicillin", "type": "cell-based", "conditions": "inhibitor alone; 18 hrs. at 37° C.", "protocol": "as §1, §2"}, "[4]": {"test_system": "Pseudomonas aeruginosa 52A104", "test": "MIC on BHI agar, alone and 1:1 with ampicillin", "type": "cell-based", "conditions": "for MIC: inhibitor alone, 18 hrs. at 37° C.", "protocol": "as §1, §2"}, "[5]": {"test_system": "Escherichia coli 51A266", "test": "MIC on BHI agar, alone and 1:1 with ampicillin", "type": "cell-based", "conditions": "for Response: 1:1 with ampicillin (E); for MIC: inhibitor alone, 18 hrs. at 37° C.", "protocol": "as §1, §2"}, "[6]": {"test_system": "Staphylococcus aureus 01A005", "test": "MIC on BHI agar, alone and 1:1 with ampicillin", "type": "cell-based", "conditions": "inhibitor alone; 18 hrs. at 37° C.", "protocol": "as §1, §2"}, "[7]": {"test_system": "Citrobacter diversus 70C031", "test": "MIC on BHI agar, alone and 1:1 with ampicillin", "type": "cell-based", "conditions": "inhibitor alone; 18 hrs. at 37° C.", "protocol": "as §1, §2"}, "[8]": {"test_system": "Klebsiella pneumoniae 53A079", "test": "MIC on BHI agar, alone and 1:1 with ampicillin", "type": "cell-based", "conditions": "for MIC: inhibitor alone, 18 hrs. at 37° C.", "protocol": "as §1, §2"}, "[9]": {"test_system": "Staphylococcus aureus 01A400", "test": "MIC on BHI agar, alone and 1:1 with ampicillin", "type": "cell-based", "conditions": "inhibitor alone; 18 hrs. at 37° C.", "protocol": "as §1, §2"}, "[10]": {"test_system": "Escherichia coli-R 51A129", "test": "MIC on BHI agar, alone and 1:1 with ampicillin", "type": "cell-based", "conditions": "for MIC: inhibitor alone, 18 hrs. at 37° C.", "protocol": "as §1, §2"}, "[11]": {"test_system": "Enterobacter cloacae 67B009 cell free beta-lactamase", "test": "Inhibition of cell-free beta-lactamase (microiodometric), E. cloacae 67B009", "type": "biochemical", "conditions": "for beta-lactamase inhibiting activity, in words: Enterobacter cloacae; for % Inhibition Beta-Lactam Hydrolysis: Penicillin G 33 μM", "protocol": "(§3) The compounds of the present invention are thus evaluated in vitro by the ability of the compound (13) to inhibit the hydrolysis of certain beta-lactam antibiotics by beta-lactamase enzymes. The hydrolysis of ampicillin and penicillin G was determined by the microiodometric method of Novick [Biochem, J. 83, 236 (1962)]. Conditions for this assay are 0.5 M potassium phosphate, pH 6.5 and 37° C. Reactions were initiated by the addition of the cell-free beta-lactamase, except in the case of preincubation experiments in which the inhibitor and enzyme were incubated together in the assay mixture for 10 minutes before initiation of the reaction by addition of substrate. With the cell-free extracts of Staphylococcus aureus, Escherichia coli, Klebsiella pneumoniae and Pseudomonas aeruginosa, the substrate was ampicillin at 33 micro M (13 microg./ml).\n(§4) Cell-free extracts were prepared by sonic treatment (using three 30-s bursts at 4° C. except for S. aureus, which was broken with a French press) of cultures grown in brain heart infusion on a rotary shaker incubator. For the S. aureus, P. aeruginose, and E. cloacae strains, de novo synthesis of beta-lactamase was induced by growing a log-phase culture in the presence of a sublethal concentration of penicillin G at 100, 1,000, and 300 microg./ml, respectively, for 2.5 hr."}, "[12]": {"test_system": "Pseudomonas aeruginosa 52A104 cell free beta-lactamase", "test": "Inhibition of cell-free beta-lactamase (microiodometric), P. aeruginosa 52A104", "type": "biochemical", "conditions": "for beta-lactamase inhibiting activity, in words: Pseudomonas aeruginosa; for % Inhibition Beta-Lactam Hydrolysis: Penicillin G 33 μM, pH 6.5, 37° C.", "protocol": "as §3, with “With the cell-free extracts of Staphylococcus aureus, Escherichia coli, Klebsiella pneumoniae and Pseudomonas aeruginosa, the substrate was ampicillin at 33 micro M (13 microg./ml).” left out\nas §4"}, "[13]": {"test_system": "a variety of microorganisms", "test": "Enhancement of ampicillin effectiveness (MIC of combinations), overall statement", "type": "cell-based", "conditions": "1:1 with ampicillin; summary of Table II", "protocol": "The procedure which is followed is the one recommended by the International Collaborative Study on Antibiotic Sensitivity Testing [Ericcson and Sherris, Acta. Pathologica et Microbiologia Scandinav, Supp. 217, Sections A and B: 64-68 (1971)], and employs brain heart infusion (BHI) agar and the inocula replicating device. Overnight growth tubes are diluted 100 fold for use as the standard inoculum (20,000-10,000 cells in approximately 0.002 ml are placed on the agar surface; 20 ml of BHI agar/dish). Twelve 2 fold dilutions of the test compound are employed, with initial concentration of the test drug being 200 mcg/ml. Single colonies are disregarded when reading tubes after 18 hrs. at 37° C. The susceptibility (MIC) of the test organism is accepted as the lowest concentration of compound capable of producing complete inhibition of growth as judged by the naked eye. The manner in which the said compounds of the formula (B) increase the effectiveness of a beta-lactam antibiotic can be appreciated by reference to experiments in which the MIC of a given antibiotic alone, and a compound of the formula (6) alone, are measured. […] The MIC values of combinations are measured using the method described by Barry and Sabath in \"Manual of Clinical Microbiology\", edited by Lenette, Spaulding and Truant, 2nd Edition, 1974, American Society for Microbiology. […]"}, "[14]": {"conditions": "inhibitor 1.0 μM, pH 6.5, 37° C."}, "[15]": {"conditions": "inhibitor 16.5 μM, pH 6.5, 37° C."}, "[16]": {"conditions": "inhibitor 66 μM, pH 6.5, 37° C."}}}
{"smiles": "CC1(C)[C@H](C(=O)O)N2C(=O)[C@@H](CO)[C@H]2S1(=O)=O", "note": "[C, 6-beta-(Hydroxymethyl)penicillanic acid 1,1-Dioxides]", "values": [{"measurement": "MIC", "setting": "[1]", "result": 100, "unit": "µg/mL"}, {"measurement": "MIC", "setting": "[2]", "result": 200, "unit": "µg/mL"}, {"measurement": "MIC", "setting": "[3]", "result": "> 200", "unit": "µg/mL"}, {"measurement": "Response", "setting": "[4]; 1:1 with ampicillin (E)", "result": "S"}, {"measurement": "MIC", "setting": "[4]", "result": "> 200", "unit": "µg/mL"}, {"measurement": "Response", "setting": "[5]", "result": "N"}, {"measurement": "MIC", "setting": "[5]", "result": 50, "unit": "µg/mL"}, {"measurement": "MIC", "setting": "[6]", "result": "> 200", "unit": "µg/mL"}, {"measurement": "MIC", "setting": "[7]", "result": 200, "unit": "µg/mL"}, {"measurement": "MIC", "setting": "[8]", "result": 50, "unit": "µg/mL"}, {"measurement": "MIC", "setting": "[9]", "result": "> 200", "unit": "µg/mL"}, {"measurement": "Response", "setting": "[10]; 1:1 with ampicillin (E)", "result": "S"}, {"measurement": "MIC", "setting": "[10]", "result": 50, "unit": "µg/mL"}]}
{"smiles": "CC1(C)[C@H](C(=O)O)N2C(=O)C[C@H]2S1(=O)=O", "note": "[B, Penicillanic acid 1,1-dioxide]", "values": [{"measurement": "beta-lactamase inhibiting activity, in words", "setting": "[11]", "result": "at best a low order of activity"}, {"measurement": "% Inhibition Beta-Lactam Hydrolysis", "setting": "[11]; [14]", "result": 0, "unit": "%"}, {"measurement": "% Inhibition Beta-Lactam Hydrolysis", "setting": "[11]; [15]", "result": 0, "unit": "%"}, {"measurement": "% Inhibition Beta-Lactam Hydrolysis", "setting": "[11]; [16]", "result": 0, "unit": "%"}, {"measurement": "% Inhibition Beta-Lactam Hydrolysis", "setting": "[11]; inhibitor 66 μM, preincubation of inhibitor and enzyme 10 minutes", "result": 26, "unit": "%"}, {"measurement": "beta-lactamase inhibiting activity, in words", "setting": "[12]", "result": "at best a low order of activity"}, {"measurement": "% Inhibition Beta-Lactam Hydrolysis", "setting": "[12]; inhibitor 66 μM", "result": 0, "unit": "%"}, {"measurement": "Response", "setting": "[1]; 1:1 with ampicillin (E)", "result": "S"}, {"measurement": "MIC", "setting": "[1]", "result": 100, "unit": "µg/mL"}, {"measurement": "MIC", "setting": "[2]", "result": 200, "unit": "µg/mL"}, {"measurement": "MIC", "setting": "[3]", "result": 200, "unit": "µg/mL"}, {"measurement": "MIC", "setting": "[4]", "result": "> 200", "unit": "µg/mL"}, {"measurement": "Response", "setting": "[5]", "result": "N"}, {"measurement": "MIC", "setting": "[5]", "result": 25, "unit": "µg/mL"}, {"measurement": "MIC", "setting": "[6]", "result": 100, "unit": "µg/mL"}, {"measurement": "MIC", "setting": "[7]", "result": 200, "unit": "µg/mL"}, {"measurement": "Response", "setting": "[8]; 1:1 with ampicillin (E)", "result": "S"}, {"measurement": "MIC", "setting": "[8]", "result": 50, "unit": "µg/mL"}, {"measurement": "MIC", "setting": "[9]", "result": 200, "unit": "µg/mL"}, {"measurement": "MIC", "setting": "[10]", "result": 200, "unit": "µg/mL"}]}
{"smiles": "CC1(C)[C@H](C(=O)O)N2C(=O)[C@@H](CO)[C@H]2S1(=O)=O", "note": "[A, 6-beta-(Hydroxymethyl)penicillanic acid 1,1-dioxide]", "values": [{"measurement": "beta-lactamase inhibiting activity, in words", "setting": "[11]", "result": "Especially noteworthy"}, {"measurement": "% Inhibition Beta-Lactam Hydrolysis", "setting": "[11]; [14]", "result": 11.4, "unit": "%"}, {"measurement": "% Inhibition Beta-Lactam Hydrolysis", "setting": "[11]; [15]", "result": 52.0, "unit": "%"}, {"measurement": "% Inhibition Beta-Lactam Hydrolysis", "setting": "[11]; [16]", "result": 77.0, "unit": "%"}, {"measurement": "beta-lactamase inhibiting activity, in words", "setting": "[12]", "result": "Especially noteworthy"}, {"measurement": "% Inhibition Beta-Lactam Hydrolysis", "setting": "[12]; inhibitor 1.0 μM", "result": 21.7, "unit": "%"}, {"measurement": "% Inhibition Beta-Lactam Hydrolysis", "setting": "[12]; inhibitor 16.5 μM", "result": 93.4, "unit": "%"}, {"measurement": "% Inhibition Beta-Lactam Hydrolysis", "setting": "[12]; inhibitor 66 μM", "result": 98.8, "unit": "%"}]}
{"smiles": "CC1(C)[C@H](C(=O)O)N2C(=O)[C@@H](CO)[C@H]2S1(=O)=O", "note": "[compound (6), 6-beta-(hydroxymethyl)penicillanic acid 1,1-dioxide]", "values": [{"measurement": "enhanced spectrum and potency with ampicillin, in words", "setting": "[13]", "result": "synergy or pronounced synergy"}]}
